# Assay results: patent US4946954A, “Platinum pharmaceutical agents” (priority 1989, dated 1990)
# What was measured:
# [1] = system: murine P388 leukemia; experiment: Example XXI: antileukemic activity against murine P388 leukemia, mean survival days and percentage increased life span; format: in vivo; conditions: 10 mg/kg i.p. on day 1; 1×10^6 P388 cells i.p.; CD2F1 male mice; 5% ethanol, 95% sterile water
# Protocol: The cyclohexane-1,2-diammine-platinum(II) salt of 2-(acetylamino)-3,4,6-tri-O-acetyl-2-deoxyglucopyranosyl-amino-thioxomethyl-imino diacetic acid and cisplatin were tested against murine P388 leukemia. The murine P388 leukemia system is known to be sensitive to cisplatin. The leukemia was maintained intraperitoneally in female DBA/2 mice.
# Prior to administration, cisplatin was dissolved in ethanol. The solution was then adjusted to 5% ethanol, 95% sterile water The cyclohexane-1,2-diammine-platinum(II) salt of 2-(acetylamino)-3,4,6-tri-O-acetyl-2-deoxyglucopyranosylamino-thioxomethyl-imino diacetic acid was dissolved in sterile water at 4 degrees celsius immediately prior to administration.
# Each compound was administered intraperitoneally to groups of CD2F1 male mice on day 1 after intraperitoneal implantation of 1×10^6 P388 leukemia cells. P388 antileukemic activity for each compound was assessed by mean survival days and percentage increased life span (% ILS).
# % ILS is calculated as follows: […]
# (§1) wherein T is the mean survival days of the treated mice and C is the mean survival days of the untreated mice.
# [2] = system: murine P388 leukemia; experiment: Example XXXVII: antileukemic activity against murine P388 leukemia, mean survival days and percentage increased life span; format: in vivo; conditions: 10 mg/kg i.p. on day 1; 1×10^6 P388 cells i.p.; CD2F1 male mice; in sterile saline
# Protocol: The compound 2-[[[3,4,6-tri-O-acetyl-2-(N-acetylamino)-2-deoxy-alpha-D-glucopyranosyl]amino]thioxomethyl]amino]butane-dioato-O,O']-[1,2-cyclohexanediammine-N,N']platinum (II) and cisplatin were tested against murine P388 leukemia. The murine P388 leukemia system is known to be sensitive to cisplatin. The leukemia was maintained intraperitoneally in female DBA/2 mice.
# Prior to administration, cisplatin was dissolved in sterile saline (0.85% sodium chloride). The compound 2-[[[3,4,6-tri-O-acetyl-2-(N-acetylamino)-2-deoxy-alpha-D-glucopyranosyl]amino]-thioxomethyl]amino]butanedioato-O,O']-[1,2-cyclohexanediammine-N,N']platinum (II) was dissolved in sterile water at 4° C. immediately prior to administration.
# Each compound was administered intraperitoneally to groups of CD2F1 male mice on day 1 after intraperitoneal implantation of 1×10^6 P388 leukemia cells. P388 antileukemic activity for each compound was assessed by mean survival days and percentage increased life span (%ILS).
# %ILS is calculated as follows: […]
# as §1
# [3] = system: P388 cells; experiment: Example XXXIX: Murine Antitumor Activity, P388 Antitumor Activity % ILS; format: in vivo, murine; male CD2F1 mice; conditions: vehicle mean survival 8.5 days
# Protocol: (§2) Murine Antitumor Activity
# (§3) *P388 cells implanted intraperitoneally (i.p.) into male CD2F1 mice
# (§4) on Day 0. Drugs (in 5% dextrose) administered i.p. on Day 1. Increase in
# (§5) life span (% ILS) was calculated compared to a group of mice receiving
# (§6) drug vehicle, with a mean survival of 8.5 days.
# (§7) +compound was administered as a suspension.
# [4] = system: male CD2F1 mice; experiment: Example XXXIX: Deaths Due to Drug Toxicity; format: in vivo
# Protocol: as §2, §3, §4, §5, §6, §7
# [5] = 150 mg/kg single dose i.p. on Day 1, in 5% dextrose
# [6] = 200 mg/kg single dose i.p. on Day 1, in 5% dextrose
# [7] = 250 mg/kg single dose i.p. on Day 1, administered as a suspension
compound,measurement,setting,value
"N.N.[Cl][Pt][Cl] [cisplatin, cis-diammine-dichloroplatinum (II)]",% ILS (percentage increased life span),[1],83%
same,Mean Survival,[1],17.4 days
same,% ILS (percentage increased life span),[2],96%
same,Mean Survival,[2],15.7 days
"cis-R,R-[2-[(pentalacetylgluconyl)imino]propanedioato-O,O'](1,2-cyclohexanediammine-N,N')platinum(II) [R,R-AG-AMP]",P388 Antitumor Activity: % ILS,[3]; [5],75%
same,Deaths Due to Drug Toxicity,[4]; [5],0/10
"Cis-R,R-(acetamidomalonato-O,O')(1,2-cyclohexanediamine-N,N')platinum (II) [AMP]",P388 Antitumor Activity: % ILS,[3]; [5],115%
same,P388 Antitumor Activity: % ILS,[3]; [6],93%
same,Deaths Due to Drug Toxicity,[4]; [6],1/10
same,Deaths Due to Drug Toxicity,"[4]; 250 mg/kg single dose i.p. on Day 1, in 5% dextrose",5/10
"Cis-R,R-(formamidomalonato-O,O')(1,2-cyclohexanediamine-N,N') platinum (II) [FMP]",P388 Antitumor Activity: % ILS,"[3]; 150 mg/kg single dose i.p. on Day 1, administered as a suspension",84%
same,P388 Antitumor Activity: % ILS,"[3]; 200 mg/kg single dose i.p. on Day 1, administered as a suspension",115%
same,P388 Antitumor Activity: % ILS,[3]; [7],81%
same,Deaths Due to Drug Toxicity,[4]; [7],2/10
